Measurements: US9790496B2, “Microrna compounds and methods for modulating MIR-21 activity” (Regulus Therapeutics, Inc., priority 2011, dated 2017)
Values joined by “and” are separate entries in the source; they are usually repeats but may differ in a detail not shown here. Equal values may be shown once.

Key:
[1] = In vivo stability: compound in kidney tissue after administration to mice; conditions: mice; by 7 days post-injection
[2] = tested on: unilateral ureteral obstruction (UUO) model of fibrosis; assay: UUO model: collagen area fraction of kidney tissue (picrosirius red histology); format: in vivo, mice; conditions: UUO comparison study, 25070 20 mg/kg s.c., irbesartan PO
Procedure: Control treatment groups included UUO only (sham) and UUO with PBS administered subcutaneously. An additional control group included UUO with Tween-MC/20 carrier perorally. 25070 administered subcutaneously at dose of 20 mg/kg at 5 days prior to, 2 days prior to, and 3 days after, the UUO procedure. Irbesartan was administered perorally on daily on days 0 through 7 following the UUO procedure. Animals were sacrificed on Day 10 following the UUO procedure. Kidney tissue was collected for measurement of collagen 1A1 and collagen 3A1 expression.
The ‘collagen area fraction’ is measured histologically through quantitative image processing of the area of kidney tissue that is stained red by the picrosirius red stain; the percent detected as red is normalized by the area of kidney section.

[3] = tested on: ischemia reperfusion injury (IRI) model; assay: Unilateral IRI model: collagen area fraction of kidney tissue; format: in vivo, mouse
Procedure: A model of ischemia reperfusion injury (IRI) is created in the mouse through unilateral or bilateral clamping of kidney arteries, which leads to tubule damage, inflammation, and fibrosis. Kidney dysfunction can occur either early (<5 days) or late (>7 days) in this model, with the early time points useful to test candidate agents for the treatment of acute kidney injury, and the later time points useful to model chronic fibrosis.
Anti-miR-21 compounds were tested in the unilateral IRI model. Unilateral IRI was induced for a period of 30 minutes. Treatment groups were as follows: sham IRI procedure; IRI with PBS administered subcutaneously; IRI with anti-miR-21 compound 25070 administered intraperitoneally at a dose of 20 mg/kg; the 2′-fluoro/2′-MOE modified anti-miR-21 25919 administered intraperitoneally at a dose of 20 mg/kg; and a 2′-fluoro/2′ modified mismatch anti-miR-21 (having three mismatches to the sequence of miR-21) 25319 administered intraperitoneally at a dose of 20 mg/kg. PBS or anti-miR compound was administered on days 5, 6, and 7 following IRI, and animals were sacrificed 14 days after IRI. As anti-miR compound is administered 5 days following the injury to the kidney, or later, when fibrosis has already occurred to some extent, this treatment regimen is considered a therapeutic regimen, rather than a prophylactic regimen.
Kidney tissue was collected for analysis of collagen 1A1 and collagen 3A1 expression (shown in Table O), and collagen area fraction (shown in Table P).
A similar study was performed with the same treatment groups and additional days of treatment. In this study, treatments were administered intraperitoneally at days 5, 6, 7, 14, and 21 following the IRI procedure Animals were sacrificed on Day 27, and kidney tissue was collected for analysis of collagen 1A1 and collagen 3A1 expression, as well as collagen area fraction.

AECSATCSAGTCSTGAUSAAGCSTAE (ACATCAGTCTGATAAGCTA; modified nucleosides coded in name, code key not given here) [Compound 25070]
compound present in kidney tissue lacking the 3'-terminal nucleoside [1]: about 50%
Collagen Area Fraction (%), Mean ([2]; group mean): 8.0%
Collagen Area Fraction (%), individual animal ([2]; sacrifice Day 10, 20 mg/kg): 7.632% and 9.937% and 8.015% and 6.611% and 6.319% and 11.272% and 6.803% and 7.405%
Collagen Area Fraction (#), individual animal ([3]; 20 mg/kg intraperitoneally on days 5, 6, 7, sacrifice 14 days after IRI, 20 mg/kg): 10.266 and 11.772 and 10.267 and 8.404 and 7.862 and 6.975 and 8.381 and 13.773
Collagen Area Fraction (#), Mean ([3]; 20 mg/kg intraperitoneally on days 5, 6, 7, sacrifice 14 days after IRI, group mean): 9.7
reduction in collagen area fraction (in words) ([3]; i.p. 20 mg/kg on days 5, 6, 7, sacrificed 14 days after IRI): statistically significant reduction
reduction in collagen area fraction (in words) ([3]; i.p. on days 5, 6, 7, 14, 21, sacrificed Day 27): statistically significant reduction
Collagen Area Fraction (#), individual animal ([3]; intraperitoneally on days 5, 6, 7, 14, 21, sacrifice Day 27): 7.354 and 9.241 and 9.589 and 11.573 and 8.182 and 10.695 and 13.978 and 10.12
